Experimental data: US20250136592A1, “C-LINKED INHIBITORS OF ENL/AF9 YEATS” (Bridge Medicines, priority 2021, published 2025)

Assays:
[1] = system: MV4:11 (MLL-AF4 MLL) cells; assay: Cell viability assay (CellTiter-Glo), 12 days; assay type: cell-based; conditions: Homo sapiens, 288 h, MV4;11 cells, 12 day, read-out: CTG_MV4, 11 12 DAY_EC50
Description: The assays were conducted over 12 days and the cells being split on days 4 and 8. […] Blank wells received cell culture medium. Plates were incubated for 4 days at 37° C. with 5% CO2. On days 4 and day 8 the cells were split and incubated for a further 4 days whilst an aliquot of cells were taken for the CTG readout. For the cell splitting, 270 nL of compounds or DMSO was added to a new 96 well cell culture plate to which 90 μL of medium plus 10 μL of cells from the original assay plate (after mixing) or 100 μL of medium (Blank wells) was added. This was repeated on day 8.
Cell viability was assessed using the CellTiter-Glo® homogeneous luminescent assay kit (Promega, G9243), according to the manufacturer's instructions. This quantifies ATP, which indicates the presence of metabolically active cells. […] The resulting data were analyzed as follows:
where vehicle are cells treated with 0.3% DMSO, Blank is culture medium. IC50 determinations were calculated by fitting the curve using XLfit (v5.3.1.3): Y=Bottom+(Top−Bottom)/(1+10^((LogIC50−X)*HillSlope)).

ENL YEATS domain = ENL YEATS domain (Homo sapiens (Human), UniProt Q03111); assay: TR-FRET ENL Screening Assay; conditions: 6xHIS ENL YEATS domain binding to H3K9cr peptide
Chain of ENL YEATS domain (Q03111 1-138): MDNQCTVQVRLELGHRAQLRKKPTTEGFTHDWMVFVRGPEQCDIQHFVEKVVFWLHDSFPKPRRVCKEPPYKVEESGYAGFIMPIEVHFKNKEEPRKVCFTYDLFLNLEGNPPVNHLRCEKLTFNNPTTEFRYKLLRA
Description: Compounds of the invention were tested in a TR-FRET ENL Screening Assay. TR-FRET (time-resolved fluorescence energy transfer) can be used to quantify ENL YEATS domain binding to a crotonylated histone peptide (H3K9cr, aa1-20). Streptavidin-Europium (Eu) chelate binds the biotinylated peptide, while Anti-6×HIS ULight™ binds 6×HIS-ENL. When Eu chelate is excited at 320 nm, fluorescence resonance energy transfer (FRET) occurs if Eu and ULight are made proximal by ENL binding to the acyl-peptide.
Low control (LC) wells received 5 μL of assay buffer instead of ENL protein. […] The response at each compound concentration minus the LC value was converted to percent inhibition of the vehicle control group response (HC-LC).

EC50 [1]: 416 nM
IC50 (ENL YEATS domain): 145 nM
SMILES: CN1C(=O)COc2cc(C(=O)Nc3cc4[nH]c([C@H]5CCCCN5C)cc4cn3)ccc21 [Example 105, (R)-4-methyl-N-(2-(1-methylpiperidin-2-yl)-1H-pyrrolo[3,2-c]pyridin-6-yl)-3-oxo-3,4-dihydro-2H-benzo[b][1,4]oxazine-7-carboxamide]
